Values joined by “and” are separate entries in the source; they are usually repeats but may differ in a detail not shown here. Identical values can stand only once.
Key:
[1] = test system: neurons; test: Apoptotic nuclei induced by Aβ fibrils, Hoescht staining; format: cell-based
Procedure: Additional results from another compound embodiment, NCGC00355553, are provided by FIG. 9C. Apoptotic nuclei were evaluated by Hoescht staining.

[2] = test system: P. falciparum strain NF54 asexual parasites; test: Asexual stage parasite growth inhibition, SYBR Green assay, 72 hours; format: cell-based; conditions: NF54, 72 hours
Procedure: In this example, several of the c-Abl inhibitors were tested in the asexual […] strain of P. falciparum parasites for activity against malaria. […] The pre-diluted parasites were dispensed into a 1536-well plate (2.5 μL/well). […] The fluorescence of each well was measured at 520 nm following excitation at 490 nm using a ViewLux platereader (PerkinElmer).

[3] = test system: Leukemia K562 cell; test: Leukemia K562 cell proliferation/viability assay (CellTiterGlo, 48 hours); format: cell-based; set-up: unit not given here; conditions: K562 cells
In short: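 BCR-Abl-dependent K562 cells treated with compound for 48 hours in an HTS-adapted format. Viability read out with CellTiterGlo reagent.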

[4] = test system: ShSy5y neuroblastome cells; test: Cholesterol accumulation induced by U18666, Filipin or PFO-GST staining; format: cell-based; conditions: U18 0.5 μg/ml 24 hours; NCGC00373060 0.1 and 0.01 μM, Imatinib 10 uM
Procedure: Cells were fixed and then stained with Filipin Staining. […] Cells were fixed and a PFO-GST immunofluorescence was performed.

[5] = test system: APP/PSEN1 mice; test: APP/PSEN1 AD mice model, water maze, Barnes maze and brain histology; conditions: water maze
From the text: The Barnes maze test is a more sensible test that detects the earlier and subtle cognitive alterations.

[6] = Body weight during supplemented diet in TLE mice study; format: in vivo, mice (C57BL/6)
Procedure: (§1) In this example, the ability of compound embodiments of the present disclosure to increase survival and diminish seizure symptoms in a TLE mice model was evaluated. […] The animals' weights were determined the week before and during the two weeks of c-Abl inhibitors treatment (results are provided in Table 12 and are illustrated graphically in FIG. 28). After 15 days of feeding, status epilepticus (SE) induction was evaluated. The mice were IP injected with Scopolamine (1.5 mg/Kg) and after 15 minutes, the SE was induced by IP injection of Pilocarpine (420 mg/Kg). The animals' behavior and the seizures induction was evaluated according to Racine's scale and the survival was determined during 60 minutes post-SE induction. […] Results are tabulated in Table 13, below and also are illustrated graphically in FIGS. 29A-29D.

[7] = test system: TLE mice model; test: Pilocarpine-induced status epilepticus (SE) after 15 days of supplemented diet; format: in vivo, mice (C57BL/6); set-up: Survival % / Survival %, mean: concentration or dose not given beside the values
Procedure: as §1

[8] = Blood and serum analysis after one month of supplemented diet; format: in vivo, mice (C57BL/6×C3H); conditions: 1 month diet (Nilotinib 200 ppm; NCGC00373060 67 ppm), individual mice
From the text: After this one-month period, blood and serum was obtained from the mice and analyzed.

[9] = individual mice, diet 67 ppm NCGC00373060 or 200 ppm Nilotinib
[10] = mean, diet 67 ppm NCGC00373060 or 200 ppm Nilotinib

O=C1Nc2cc(OC(F)(F)F)ccc2Nc2ccc(-c3cn[nH]c3)cc21 [NCGC00355553, 2-(1H-Pyrazol-4-yl)-8-(trifluoromethoxy)-5,10-dihydro-1-dibenzo[b,e][1,4]diazepin-11-one]
apoptotic nuclei induced by Aβ fibrils [1]: prevent increases in apoptotic nuclei induced by Aβ fibrils

Cc1ccc(NC(=O)c2ccc(CN3CCN(C)CC3)cc2)cc1Nc1nccc(-c2cccnc2)n1 [Imatinib]
% Killing [2]: 111.0% | Efficacy [3]: −105.5 | cholesterol accumulation [4]: decreased the cholesterol accumulation

CS(=O)(=O)Nc1cccc(-c2ccc3c(c2)C(=O)Nc2cc(OC(F)(F)F)ccc2N3)c1 [NCGC00355551, N-(3-(11-Oxo-8-(trifluoromethoxy)-10,11-dihydro-5H-dibenzo[b,e][1,4]diazepin-2-yl)phenyl)methanesulfonamide]
cognitive decline in APP/PSEN1 mice [5]: protects APP/PSEN1 mice against cognitive decline | Efficacy [3]: −85.3

Cc1cn(-c2cc(NC(=O)c3ccc(C)c(Nc4nccc(-c5cccnc5)n4)c3)cc(C(F)(F)F)c2)cn1 [Nilotinib]
Body weight week 4 [6, 9]: 17 gr (2×) and 19 gr and 15 gr (2×) and 14 gr (2×) and 18 gr (2×) | Body weight week 5 [6, 9]: 18 gr (3×) and 21 gr and 17 gr and 19 gr and 16 gr and 20 gr (2×) | Body weight week 3 ([6]; individual mice, week before diet (67 ppm NCGC00373060 or 200 ppm Nilotinib)): 15 gr (2×) and 18 gr and 11 gr and 9 gr (2×) and 12 gr and 14 gr and 16 gr | Body weight week 4, mean [6, 10]: 16 gr | Body weight week 5, mean [6, 10]: 19 gr | Body weight week 3, mean ([6]; mean, week before diet (67 ppm NCGC00373060 or 200 ppm Nilotinib)): 13 gr | % Killing [2]: 98.7% | IC50 ([2]; Plasmodium falciparum): 648 nM | Survival % ([7]; individual mice, 60 minutes post-SE induction): 100% | Latency SE [7, 9]: 30 min and 22 min | Survival %, mean ([7]; mean, 60 minutes post-SE induction): 100% | Latency SE, mean [7, 10]: 26 min | SE %, mean [7, 10]: 40% | Efficacy [3]: −86.5 | ALT [8]: 36.0 IU/L and 26.0 IU/L | AST [8]: 142.0 IU/L and 114.0 IU/L | Alkaline phosphatase [8]: 386.4 IU/ and 278.2 IU/ | Bacilliformes [8]: 0 µL⁻¹ | Bacilliformres (%) [8]: 0% | Blastos [8]: 0 µL⁻¹ | Blood urea nitrogen [8]: 19.7 mg/dL and 18.2 mg/dL | C.H.C.M. [8]: 29.3 g/dL and 28.9 g/dL | Calcium [8]: 10.4 mg/dL and 10.2 mg/dL | Creatinine [8]: 1.0 mg/dL and 0.8 mg/dL | Eosinophils [8]: 32 µL⁻¹ and 0 µL⁻¹ | Eosinophils (%) [8]: 1% and 0% | Erythrocytes [8]: 5.9e+06 µL⁻¹ and 8.6e+06 µL⁻¹ | Glucose (without fluoride) [8]: 84.0 mg/dL and 56.0 mg/dL | H.C.M. [8]: 14.9 pg/cel and 14.7 pg/cel | Hematocrit [8]: 30.0% and 43.6% | Hemoglobin [8]: 8.8 g/dL and 12.6 g/dL | Juvenile [8]: 0 µL⁻¹ | Leukocytes [8]: 3,200 /μL and 3,300 /μL | Lymphocytes (%) [8]: 60% and 62% | Mean platelet vol. [8]: 6.9 fL and 6.1 fL | Monocytes (%) [8]: 4% and 15% | Morphology leukocytes [8]: Normal | Myelocytes [8]: 0 µL⁻¹ | Reticulocytes (%) [8]: 0.5% and 0.6% | Reticulocytes (×10^3/μL) [8]: 29.6 ×10^3/μL and 51.3 ×10^3/μL | Segmented [8]: 759 µL | Segmented (%) [8]: 35% and 23% | Segmented (μL) [8]: 1,120 μL | Thrombocyte morphology [8]: Normal | Thrombocytes [8]: 780,000 /μL and 689,000 /μL | Total cholesterol [8]: 114.0 mg/dL and 84.0 mg/dL | V.C.M. [8]: 50.8 fL and 51.0 fL | V.H.S. [8]: 3.0 and 6.0 | Weight [8]: 42.7 g and 25.2 g | Youth (%) [8]: 0% | Lymphocytes ([8]; absolute count): 1,920 and 2,046 | Monocytes ([8]; absolute count): 128 and 495

Reference: US11649218B2, “C-Abl tyrosine kinase inhibitory compound embodiments and methods of making and using the same” (The USA, as represented by the Secretary, Dept. of Health …, priority 2018, dated 2023)
